Source: patent US20250281610A1, “P2RY2 ACTIVITY MODULATORS” (Deutsches Krebsforschungszentrum Stiftung des öffentlichen …, priority 2022, published 2025)

What was measured:
[1] = tested on: CEA-specific CAR transduced T cells co-cultured with SW480 cells; experiment: T cell activation in co-culture of CEA-specific CAR-T cells with SW480 cells; assay type: cell-based, human; conditions: 40 μM ATP, 200 μM ATPγS, 10 μM Diquafosol, 5 μM Denufosol, 24 hours (FIG. 19)
Description: FIG. 19. Effects of P2RY2 agonist and P2RY2 antagonist on T cell activity in T cell-cancer cell co-cultures. T cells transduced with a CEA-specific CAR (CAR-T) were co-cultured with genetically edited SW480 cells for 24 hours in the absence or presence of 40 μM ATP, 200 μM ATPγS, 10 μM Diquafosol, 5 μM Denufosol and 10 μM AR-C 118925XX (AR-C). Control cells: SW480 cells transduced with non-targeting sgRNA and Cas9 (gNT); P2RY2 deficient cells: SW480 cells transduced with P2RY2-targeting sgRNA and Cas9 (gP2RY2-3, gP2RY2-4); B7-H3 (CD276) deficient cells: SW480 cells transduced with B7-H3-targeting sgRNA and Cas9 (gCD276-1); P2RY2 and B7-H3 double deficient cells: SW480 cells transduced with P2RY2-targeting sgRNA, B7-H3-targeting sgRNA, and Cas9 (gCD276-1 gP2RY2-3 DKO, gCD276-1 gP2RY2-4 DKO); P2RY2 overexpression cells: SW480 cells transduced with the open reading frame of P2RY2 (P2RY2-OE); B7-H3 overexpression cells: SW480 cells transduced with the open reading frame of CD276 (CD276-OE). Transduced cancer cells were selected by antibiotics according to antibiotic resistance genes carried by the lentiviral constructs. Flow cytometry analysis of expression of CD25 and CD69 and production of IFNγ within the CD3+CD8+ or CD3+CD4+ cell population is shown (values indicate the percentages of positive cells).
(§1) MART-1 specific T cells were generated as described (Mezzadra et al., Nature 549, 106-110 (2017); Jorritsma et al., Blood 110 (10): 3564-3572. (2007)). To generate CD33-specific chimeric antigen receptor (CAR) T cells and CEA-specific CAR-T cells, a CD33Hul95-CD28Z CAR (described in WO 2019/178382) cassette and MFE-23 (described in US20050147614A1)-CD28Z CAR were separately cloned into retroviral vectors, and the resulting virus was used to transduce T cells as described (Mezzadra et al., Nature 549, 106-110 (2017); Jorritsma et al., Blood 110 (10): 3564-3572. (2007)).
The open reading frames of transcripts of P2RY2 (ENST00000393597.7) or CD276 (ENST00000318443.10), were ordered as a codon optimized gBlock Gene Fragment (Integrated DNA Technologies or Twist Bioscience) and cloned into a lentiviral vector containing a blasticidin selection cassette. Constructs were verified by Sanger sequencing.
(§2) MART1-specific CD8+ T cells and MART1 epitope-expressing cancer cells were mixed at a ratio of 1:16 to 1:1. CD33 CAR-T cells and CD33 expressing THP-1 cells were mixed at a ratio of 1:16 to 1:4. CEA CAR-T cells and CEA expressing SW480 cells were mixed at a ratio of 1:1. Next, cells were centrifugated at 1,600 g for 3 min and incubated at 37° C. and 5% CO2 for 12-72 hours. T cell activation was assessed by surface staining with anti-CD137-BV421 (4-1BB, Biolegend), anti-CD137-PE/Cy7 (4-1BB, Biolegend), anti-CD69-APC/Fire™ 750 (FN50, Biolegend), anti-CD25-AF700 (BC96, Biolegend), anti-CD25-APC (BC96, Biolegend) antibodies and intracellular staining with anti-IL-2-PE/Cy7 (MQ1-17H12, Biolegend), anti-IFN-7-BV421 (4S.B3, Biolegend), anti-TNF-α-BV785 (MAb11, Biolegend), anti-TNF-α-APC (MAb11, Biolegend) antibodies, followed by flow cytometry analysis. For intracellular staining, brefeldin A (Biolegend) was added to the cell culture medium 4 h before cells were harvested. The viability of cancer cells that grow in suspension including THP-1 cells was assessed by flow cytometry-based absolute cell counting using AccuCount beads (Spherotech). For adherent cancer cells including BxPC3, MIA PaCa-2, MDA-MB-231 and MCF7, the cell viability was quantified using CellTiter-Blue Cell Viability Assay (Promega).

B7-H3 = experiment: Flow cytometry analysis of B7-H3 expression after ATP or UTP stimulation; assay type: cell-based, human; conditions: for B7-H3 expression: P2RY2 proficient cells (THP-1, FIG. 3) stimulated with ATP or UTP for 24 hours
Description: FIG. 2. Flow cytometry analysis of B7-H3 expression in wildtype (WT) and P2RY2-deficient bulk THP-1, U937, KBM7, and K562 cells (P2RY2-3 KO and P2RY2-4 KO) in the absence or presence of ATP. Values indicate MFI relative to untreated WT cells.
FIG. 3. Flow cytometry analysis of B7-H3 expression in THP-1 cells in the absence or presence of ATP. Values indicate MFI relative to untreated cells.
THP-1 cells, U937 cells, K562 cells, and KBM7 cells were transduced with a lentiviral vector encoding Cas9 along with a Blasticidin S resistance cassette ([…] deaminase). One day after the transduction, cells were selected with 50 microgram/milliliter Blasticidin S Hydrochloride for […]. Next, surviving cells were transduced with one of the lentiviral vectors encoding sgRNA targeting the sequences 5′-[…]-3′ (SEQ ID NO:6) and 5′-[…]-3′ (SEQ ID NO:7) on the coding strand of P2RY2 gene, along with a puromycin resistance cassette (puromycin N-acetyltransferase). One day after the transduction, cells were selected with 2 microgram/milliliter Puromycin dihydrochloride for 48-96 hours. Selected cells were expanded, subjected to genomic DNA isolation, and analyzed for deleterious editing of the P2RY2 locus by PCR (using primers 5′-[…]-3′ (SEQ ID NO:8) and 5′-[…]-3′ (SEQ ID NO:9)) and Sanger sequencing of the PCR products using primer 5′-[…]-3′ (SEQ ID NO:8) for the sgRNA(5′-[…]-3′, SEQ ID NO:6)) transduced cell and 5′-[…]-3′ (SEQ ID NO:9) for the sgRNA(5′-[…]-3′, SEQ ID NO:7) transduced cell.
The polyclonal cells transduced with Cas9 and sgRNA targeting P2RY2, and wildtype cells were cultured in the absence or presence of ATP or UTP (ligands of P2RY2, Sigma) for 24 hours, stained with anti-B7-H3 antibody and analyzed by flow cytometry.

THP-1 cells = experiment: Viability of THP-1 cells in co-culture with CD33-specific CAR-T cells (flow cytometry-based cell counting); design: species or system human; conditions: 100 uM Diquafosol, 24 hours, co-culture with CD33-specific CAR-T cells (FIG. 9)
Description: FIG. 8. Effects of P2RY2 antagonist on T cells and cancer cells in T cell-cancer cell co-cultures. T cells transduced with CD33-specific CAR (CAR-T) were co-cultured with genetically edited THP-1 cells in the absence or presence of 5 μM AR-C 118925XX (AR-C) for 6-24 hours. Control cells: THP-1 cells transduced with non-targeting sgRNA and Cas9 (gNT); P2RY2 deficient cells: THP-1 cells transduced with P2RY2-targeting sgRNA and Cas9 (gP2RY2-3, gP2RY2-4); B7-H3 (CD276) deficient cells: THP-1 cells transduced with B7-H3-targeting sgRNA and Cas9 (gCD276-1); P2RY2 and B7-H3 double deficient cells: THP-1 cells transduced with P2RY2-targeting sgRNA, B7-H3-targeting sgRNA, and Cas9 (gCD276-1 gP2RY2-3 DKO, gCD276-1 gP2RY2-4 DKO); P2RY2 overexpression cells: THP-1 cells transduced with the open reading frame of P2RY2 (P2RY2-OE); B7-H3 overexpression cells: THP-1 cells transduced with the open reading frame of CD276 (CD276-OE). […]
FIG. 9. […] Control cells THP-1 cells transduced with non-targeting sgRNA and Cas9 (Ctrl.); P2RY2 overexpression cells: THP-1 cells transduced with the open reading frame of P2RY2 (P2RY2-OE). […]
The open reading frames of transcripts of P2RY2(ENST00000393597.7) or CD276(ENST00000318443.10), were ordered as a codon optimized gBlock Gene Fragment (Integrated DNA Technologies or Twist Bioscience) and cloned into a lentiviral vector containing a blasticidin selection cassette. […]
MART1-specific CD8+ T cells and MART1 epitope-expressing cancer cells were mixed at a ratio of 1:16 to 1:4. […] T cell activation was assessed by surface staining with anti-CD137-BV421 (4-1BB, Biolegend), anti-CD69-APC/Fire™ 750 (FN50, Biolegend), anti-CD25-AF700 (BC96, Biolegend) antibodies and intracellular staining with anti-IL-2-PE/Cy7 (MQ1-17H12, Biolegend), anti-IFN-7-BV421 (4S.B3, Biolegend), anti-TNF-α-BV785 (MAb11, Biolegend) antibodies, followed by flow cytometry analysis. […] The viability of cancer cells that grow in suspension including THP-1 cells was assessed by flow cytometry-based absolute cell counting using AccuCount beads (Spherotech). […]

BxPC3 cells = experiment: Viability of BxPC3 cells in co-culture with MART-1-specific TCR-T cells (CellTiter-Blue); assay type: cell-based, human; conditions: single agent: 5 μM AR-C, 10 μg/ml atezolizumab or 10 μg/ml durvalumab, 6-24 hours (FIG. 11)
Description: FIG. 11. […] Untreated cells served as the control.
as §1, with “T” for “T cells and CEA-specific CAR-T”, “was” for “and MFE-23 (described in US20050147614A1)-CD28Z CAR were separately”, “into a” for “into”, “vector,” for “vectors,”
as §2, with “to” for “to 1:1. CD33 CAR-T cells and CD33 expressing THP-1 cells were mixed at a ratio of 1:16 to”, “1:4.” for “1:4. CEA CAR-T cells and CEA expressing SW480 cells were mixed at a ratio of 1:1.”, “Biolegend),” for “Biolegend), anti-CD137-PE/Cy7 (4-1BB, Biolegend),”, “anti-CD25-AF700” for “anti-CD25-AF700 (BC96, Biolegend), anti-CD25-APC”, “anti-TNF-α-BV785” for “anti-TNF-α-BV785 (MAb11, Biolegend), anti-TNF-α-APC”, “BxPC3” for “BxPC3, MIA PaCa-2, MDA-MB-231”

Compound | T cell activation [1] | B7-H3 expression (B7-H3) | further results
Nc1ncnc2c1ncn2[C@@H]1O[C@H](COP(=O)(O)OP(=O)(O)OP(=O)(O)O)[C@@H](O)[C@H]1O [ATP] | repressed | increased B7-H3 expression in a dose-dependent manner | ATP-induced B7-H3 surface expression upon P2RY2 disruption (B7-H3; P2RY2-deficient THP-1, U937, KBM7, K562 cells, presence of ATP (FIG. 2)): abrogated
Nc1ncnc2c1ncn2[C@@H]1O[C@H](COP(=O)(O)OP(=O)(O)OP(O)(O)=S)[C@@H](O)[C@H]1O [Adenosine-5′-(γ-thio)-triphosphate] | repressed |  | 
Nc1ccn([C@H]2C[C@H](O)[C@@H](COP(=O)(O)OP(=O)(O)OP(=O)(O)OP(=O)(O)OC[C@H]3O[C@@H](n4ccc(=O)[nH]c4=O)[C@H](O)[C@@H]3O)O2)c(=O)n1 [Denufosol] | repressed |  | 
O=c1ccn([C@@H]2O[C@H](COP(=O)(O)OP(=O)(O)OP(=O)(O)OP(=O)(O)OC[C@H]3O[C@@H](n4ccc(=O)[nH]c4=O)[C@H](O)[C@@H]3O)[C@@H](O)[C@H]2O)c(=O)[nH]1 [Diquafosol] | repressed |  | T cell-mediated cytotoxicity in THP-1 cells (THP-1 cells): confers resistance
O=c1ccn([C@@H]2O[C@H](COP(=O)(O)OP(=O)(O)OP(=O)(O)O)[C@@H](O)[C@H]2O)c(=O)[nH]1 [UTP] |  | increased B7-H3 expression in a dose-dependent manner | 
atezolizumab: Blocking antibody of the PD-L1-PD-1 immune checkpoint |  |  | viability of BxPC3 cells (BxPC3 cells): reduced
